What was measured:
[1] = test system: Atrogin-1; assay: Atrogin-1 protein level by western blot in C2C12 cells (FIG. 5B); assay type: cell-based, mouse; settings: C2C12, 0.1, 1 or 20 μM dapsone and 1 μM dexamethasone; concentration-dependent
Method: (§1) A C2C12 cell line (mouse gastrocnemius muscle, ATCC®CRL-1772™) was inoculated in a 10% FBS/DMEM culture medium in a 60 mm culture dish. When the cells were grown to about 70% confluency in a 5% CO2 incubator at a temperature of 37° C., the culture medium was changed to a 2% FBS/DMEM culture medium to allow complete differentiation after incubation for 4 days. The C2C12 cell line is a mouse myoblast cell line obtained through continuous culture of myoblasts that are cultured from the gastrocnemius muscle of C3H mice. […] Here, 1 μM of dexamethasone was added thereto and cultured together for 24 hours as described above.
(§2) After the medium was removed from the culture and the cells were collected therefrom, 500 μl of an RIPA lysis buffer was added for lysing the cells. Then, the resulting lysates were subjected to electrophoresis and western blot analysis with respect to Atrogin-1, MuRF-1, and α-tubulin. A primary antibody used in the western blot analysis was a rabbit anti-Atrogin-1 antibody (ECM Bioscience), a MuRF-1 antibody (GeneTax), and α-tubulin (Cell Signaling Technology, USA) antibody, and a secondary antibody used in the western blot analysis was an HRP-conjugated anti-rabbit antibody (Jackson ImmunoResearch).

[2] = test system: phosphorylated Akt-p (Ser473); assay: Factors of atrophy: western blot of Akt-p in C2C12 cells (FIG. 4); assay type: cell-based, mouse; settings: C2C12, 0.1, 1, 20 μM dapsone 12 hours, then 1 μM dexamethasone 2 hours; concentration-dependent
Method: as §1, with “2” for “24”
(§3) After the medium was removed from the culture and the cells were collected therefrom, 500 μl of an RIPA lysis buffer (including 20 mM Tris-HCl (pH 7.5), 150 mM NaCl, 1 mM Na2EDTA, 1 mM EGTA, 1% NP-40, 1% sodium deoxycholate, 2.5 mM sodium pyrophosphate, 1 mM beta-glycerophosphate, 1 mM Na3VO4, and 1 μg/ml leupeptin) was added for lysing the cells. […]

[3] = test system: Atrogin-1 mRNA; assay: Atrogin-1 mRNA level by real time PCR in C2C12 cells (FIG. 5A); assay type: cell-based, mouse; settings: C2C12, 20 μM dapsone and 1 μM dexamethasone, 24 hours; normalized to GAPDH mRNA
Method: (§4) Here, 1 μM of dexamethasone was added thereto and incubated for 24 hours. Then, the amounts of the expressed mRNA of the Atrogin-1 and MuRF-1 among the C2C12 cells were confirmed. Here, the complete RNA was separated by using a Trizol reagent (Invitrogen). The analysis of the mRNAs of Atrogin-1 and MuRF-1 was performed by using a real time […] instrument, BioRad), which is a device for measuring reverse transcription and SYBR Green. The resulting amounts then normalize to the amount of GAPDH mRNA. The amplification of Atrogin-1, MuRF-1, and GAPDH mRNAs was performed by using an oligonucleotide primer set of SEQ ID NOS: 1 and 2, an oligonucleotide primer set of SEQ ID NOS: 3 and 4, and an oligonucleotide primer set of SEQ ID NOS: 5 and 6.

[4] = test system: MURF-1 mRNA; assay: MuRF-1 mRNA level by real time PCR in C2C12 cells (FIG. 5A); assay type: cell-based, mouse; settings: C2C12, 20 μM dapsone and 1 μM dexamethasone, 24 hours; normalized to GAPDH mRNA
Method: as §4

[5] = test system: SOL muscle of the hind-limb of a mouse; assay: Muscle fatigability of SOL muscle separated from fed mice (FIG. 7); assay type: in vivo; settings: 150 Hz, 100 V, stimulation every 2 seconds for 30 seconds
Method: (§5) The SOL muscle was separated from a female mouse (which weighs about 20 g) aged about 3 months. The mouse was anesthetized by sodium pentobarbital injection (100 mg/kg body weight). The SOL muscle, which is a type I muscle, was separated by paying attention to each hind-limb of the mouse while maintaining ligaments from both hind-limbs without damaging the SOL muscle. Then, the separated SOL muscle was put in an oxygen-treated Ringer's solution (118 mM NaCl, 4.75 mM KCl, 2.5 mM CaCl2, 1.18 mM MgSO4, 1.18 mM NaH2PO4, 24.8 mM NaHCO3, 10 mM glucose, and 0.02 g/l tubocurarine chloride, 25° C., pH 7.4) (Sigma Aldrich), set, and stabilized. One side of the separated SOL muscle was filled with the Ringer's solution to fix the separated SOL muscle on a tissue bath with smooth oxygen supply while the other side of the separated SOL muscle was fixed on a FT03 isometric force transducer (Grass Instruments, West Warwick, USA). Here, the muscle twitching was adjusted according to the intensity of the electric field stimulation. […] Here, the muscle contractility value (mN) represents the muscle twitch contraction.

[6] = test system: phosphorylated FOXO1-p (Ser256); assay: Factors of atrophy: western blot of FOXO1-p in C2C12 cells (FIG. 4); assay type: cell-based, mouse; settings: C2C12, 0.1, 1, 20 μM dapsone 12 hours, then 1 μM dexamethasone 2 hours
Method: as §1, with “2” for “24”
as §3

[7] = test system: SOL muscle of the hind-limb of a mouse; settings: mouse fed 4 mg/kg dexamethasone and 2 mg/kg dapsone for 3 weeks, 0.2 Hz (100 V)
Method: as §5

[8] = test system: MURF-1; assay: MuRF-1 protein level by western blot in C2C12 cells (FIG. 5B); assay type: cell-based, mouse; settings: C2C12, 0.1, 1 or 20 μM dapsone and 1 μM dexamethasone; concentration-dependent
Method: as §1, §2

SMILES	protein level of Atrogin-1 [1]	amount of the Akt-p [2]	mRNA level of Atrogin-1 [3]	mRNA level of MURF-1 [4]	decrease of muscle fatigability compared with intake of only dexamethasone ([5]; intake of both dexamethasone and dapsone) [%]	amount of the FOXO1-p protein [6]	increase of twitch contractility compared with mouse fed on dexamethasone [7] [%]	protein level of MURF-1 [8]	degree of the muscle fatigability ([5]; upon intake of dexamethasone)
Nc1ccc(S(=O)(=O)c2ccc(N)cc2)cc1 [dapsone, 4-[(4-aminobenzene)sulfonyl]aniline]	significantly decreased	increased	significantly decreased	significantly decreased	20.3	decreased	43.7	significantly decreased	
C[C@@H]1C[C@H]2[C@@H]3CCC4=CC(=O)C=C[C@]4(C)[C@@]3(F)[C@@H](O)C[C@]2(C)[C@@]1(O)C(=O)CO [dexamethasone]									increased

From US9381171B2 (priority 2013, dated 2016)
